According to paper PMC10135567, “New Indole-3-Propionic Acid and 5-Methoxy-Indole Carboxylic Acid Derived Hydrazone Hybrids as Multifunctional Neuroprotectors” (Antioxidants, 2023):
“Also recorded” adds a separate entry of the source.

Legend:
[1] = O-phenanthroline Fe(II) chelation test; format: physicochemical; settings: 200 µM compound, FeCl2
Method: The Fe (II)-chelating activity of the tested hydrazones was determined by the O-phenanthroline method. A total of 1 mL sample solutions of 50 mM PB pH 7 contained 0.2 mM O-phenanthroline and 0.05 mM FeCl2 and 0.2 mM hydrazone. In the controls, the tested compounds were omitted. Absorbance was measured at 515 nm via GENESYS 50 UV-VIS spectrophotometer after incubation for 5 min at 37 °C. The data for the sample activity were presented as a percentage of the control measurement. Absorbance spectra of all the samples, the control, and the measurement compositions containing the tested hydrazones and Fe(II) at the concentrations used in the samples were measured.
To explain the results of both systems of Fe(II)-induced oxidative damage, we studied the potency of the tested compounds to chelate-iron (Fe(II)). This was studied by spectrophotometric determination of free iron (Fe(II)) using the ortho-phenanthroline test, as 1,10-phenantroline reacts rapidly with Fe(II) ions in weakly acidic media, generating an orange–red complex (ferroin) with characteristic absorbance spectra (molar absorptivity 1.10.104 (α = 0.20) at ~max 512 nm and a molar ratio 3:1 (R: Fe(II))). The generated complex was stable, and the bound Fe(II) was resistant to oxidation. Lower absorbance of the reaction mixture indicated higher Fe^2+-chelating activity.

[2] = Superoxide radical scavenging, xanthine/xanthine oxidase/NBT system; format: biochemical; settings: for increase of absorbance ratio as compared to the controls: 100 µM; for decrease of NBT reduction as compared to the controls: 100 µM (highest tested concentration); for absorbance ratio (NBT reduction, % of control): 1, 10, 50 and 100 µM
Method: The 1 mL cuvette for the control contained 1 mM xanthine, 20 µL xanthine oxidase (100 IU/L), and 0.04 mM NBT [43, 44]. In the sample compositions, the tested hydrazones at different concentrations were added. All measurement compositions were incubated at 37 °C, and the absorbance was determined spectrophotometrically at 560 nm via Shimadzu UV-1601 UV-vis spectrophotometer.
The potential capability of the investigated compounds to prevent the superoxide-anion radical-induced NBT reduction was investigated spectrophotometrically by xanthine-oxidase assay. The assay was carried out at the final concentration of the tested compounds, at 1, 10, 50, and 100 µM.

[3] = system: zonula occludens-1 (ZO-1), tight junctions between bEnd3 cells; assay: Immunofluorescence of ZO-1 (tight junctions) in bEnd3 cells; format: cell-based, mouse; settings: 90 min
Method: Immunofluorescence of zonula occludens-1 (ZO-1) was performed to determine the in vitro effect of the compounds on tight junctions (TJs) between bEnd3 cells. The experiment was conducted simultaneously with the permeability assay. Briefly, cells were seeded on cover slides in 24-well plates at a concentration of 3.5 × 10^4 cells/well and incubated for 3–4 d at 37 °C and 5% CO2 in a humidified atmosphere, until they reached 100% confluence. The cells were then treated with 10 and 50 µM concentrations of the compounds for 90 min. After the allotted treatment time, the cells were fixed with ice-cold acetone at −20 °C for 10 min; blocked with 1% bovine serum albumin (BSA, cat. no. 9048-46-8, Acros Organics, Thermo Fischer Scientific, Waltham, MA, USA) in PBS, containing 0.1% Tween® 20 (cat. no. P1379, Sigma-Aldrich Co. LLC, St. Louis, MO, USA); and labeled with anti-ZO-1 (rabbit polyclonal antibody, 1:500, cat. no. ab96587, Abcam, Cambridge, UK) at 4 °C overnight. The slides were then incubated with a secondary donkey anti-rabbit Alexa Fluor™ 555 antibody (1:1000, cat. no. 4413S, Molecular Probes, Thermo Fischer Scientific, Waltham, MA, USA) for 1 h at room temperature (RT) in the dark. […] Fluorescence microscopy was performed on a spinning disk confocal microscope system (Andor Dragonfly 505, Oxford Instruments, Abingdon, UK) with 60 × oil NA 1.4 objective, with em./ex. = 561/617 nm for ZO-1 and 405/445 nm for DAPI. The obtained data were analyzed with Fiji and compiled via the FigureJ plugin [46].
To further explore the neuroprotective effect of the compounds, we tested their ability to influence the BBB and its permeability, utilizing a static BBB model with brain microvascular endothelial cell line bEnd3 [36], as it would be essential for the compounds to pass the BBB and protect the neuronal cells. […] Here, we determined any changes in the permeability of the BBB by imitating an endothelial barrier via a static BBB model of bEnd3 cells (Figure 11a,c,e). […]

[4] = system: isolated rat-brain synaptosomes; assay: 6-OHDA-induced neurotoxicity in isolated rat synaptosomes, GSH level; format: cell-based; settings: 10 µM pre-incubation 30 min, then 150 µM 6-OHDA 1 h
Method: This neurotoxicity model was based on the metabolism and auto-oxidation of 6-hydroxy dopamine responsible for the reactive oxygen species and quinones generation, ultimately leading to neurotoxicity and neurodegeneration. The experiment was performed by pre-incubation of the synaptosomes with 10 µM of the compounds for 30 min, followed by the addition of 150 µM 6-hydroxy dopamine for induction of neurotoxicity. After 1 h, they were centrifuged twice for 1 min at 15,000 × g. After the second wash, the precipitates were resolved with buffer B and glucose.

[5] = Fe(II)-induced deoxyribose degradation assay; format: biochemical; settings: 80 µM, 2-deoxyribose 0.5 mM, 0.1 mM FeCl2; for absorbance ratio, % of the controls (deoxyribose degradation): lower = stronger antioxidant
Method: The lipid peroxidation assay and a modification of the deoxyribose-degradation assay were used. Two types of measurement compositions in phosphate buffer (PB–K2HPO4/KH2PO4, pH 7.4) were prepared for both tests: (i) samples, containing the biologically relevant molecules (lecithin emulsion or deoxyribose), iron, and the tested hydrazones at the concentrations indicated below the figures; and (ii) controls, in which the tested hydrazones were omitted. The data for the sample activity were presented as a percentage of the control measurement.
The deoxyribose (0.5 mM) damage was induced by adding FeCl2 (0.1 mM). The measurement compositions were incubated at 37 °C for 30 min. The next step comprised adding 0.5 mL of 2.8% trichloroacetic acid and 0.5 mL of thiobarbituric acid. Then, the samples were heated in boiling water for 20 min, and their absorbance was estimated at 532 nm (characteristic band for the generated chromophore) via Shimadzu UV-1601 UV-vis spectrophotometer.

| Molecule | absorbance at 515 nm compared to the controls (Fe(II) chelation) [1] | increase of absorbance ratio as compared to the controls [2] [%] | melting point [°C] | GSH level preserved, as compared to 6-OHDA [4] [%] | absorbance ratio, % of the controls (deoxyribose degradation) [5] | decrease of NBT reduction as compared to the controls [2] | further results |
| --- | --- | --- | --- | --- | --- | --- | --- |
| COc1ccc2[nH]c(C(=O)NN=Cc3cc(OC)c(O)c(OC)c3)cc2c1 [Compound 5f, N′-(4-Hydroxy-3,5-dimethoxybenzylidene)-5-methoxy-1H-indole-2-carbohydrazide] | statistically identical absorbance values at 515 nm, as compared to the controls | 8 | 239 to 240 | – | – | – | – |
| COc1ccc2[nH]c(C(=O)NN=Cc3ccc(O)c(O)c3)cc2c1 [Compound 5b, N′-(3,4-Dihydroxybenzylidene)-5-methoxy-1H-indole-2-carbohydrazide] | statistically identical absorbance values at 515 nm, as compared to the controls | – | 252 to 253 | – | – | – | NBT reduction decreased to ([2]; 10 µM): 20%; effect on tight junctions (ZO-1 distribution) ([3]; 10 µM): without affecting the TJs |
| COc1ccc2[nH]c(C(=O)NN=Cc3ccc(O)c(OC)c3)cc2c1 [Compound 5d, N′-(4-Hydroxy-3-methoxybenzylidene)-5-methoxy-1H-indole-2-carbohydrazide] | statistically identical absorbance values at 515 nm, as compared to the controls | 23 | 261 | 40 | did not induce a modulating effect | – | – |
| COc1ccc2[nH]c(C(=O)NN=Cc3cccc(O)c3O)cc2c1 [Compound 5a, N′-(2,3-Dihydroxybenzylidene)-5-methoxy-1H-indole-2-carbohydrazide] | identical absorbance values, as compared to the controls | – | 262 to 263 | 40 | about 50% | less than 15% | effect on tight junctions (ZO-1 distribution) ([3]; 10 µM): without affecting the TJs |
| N′-(4-Hydroxy-2-methoxybenzylidene)-3-(1H-indol-3-yl)propanehydrazide [Compound 3e] | statistically significant changes; also recorded: much higher absorbance values than the controls | – | – | – | – | – | pro-oxidant effect above the controls (deoxyribose degradation) [5]: about 10%; absorbance ratio (NBT reduction, % of control) [2]: approximately 135% |
| COc1ccc2[nH]c(C(=O)NN=Cc3ccc(O)cc3O)cc2c1 [Compound 5c, N′-(2,4-Dihydroxybenzylidene)-5-methoxy-1H-indole-2-carbohydrazide] | statistically significant changes | – | – | – | did not induce a modulating effect | – | absorbance ratio (NBT reduction, % of control) [2]: did not influence the estimated absorbance ratio at any of the tested concentrations |
| COc1cc(C=NNC(=O)CCc2c[nH]c3ccccc23)ccc1O [Compound 3d, N′-(4-Hydroxy-3-methoxybenzylidene)-3-(1H-indol-3-yl)propanehydrazide] | statistically identical absorbance values at 515 nm, as compared to the controls | – | 157 to 158 | – | – | less than 15% | pro-oxidant effect above the controls (deoxyribose degradation) [5]: about 10% |
| COc1ccc2[nH]cc(CCNC(C)=O)c2c1 [Melatonin] | – | – | – | 90 | – | – | – |
| COc1ccc(C=NNC(=O)c2cc3cc(OC)ccc3[nH]2)c(O)c1 [Compound 5e, N′-(2-Hydroxy-4-methoxybenzylidene)-5-methoxy-1H-indole-2-carbohydrazide] | statistically significant changes; also recorded: much higher absorbance values than the controls | 40 | – | – | did not induce a modulating effect | – | effect on tight junctions (ZO-1 distribution) ([3]; 10 and 50 µM): appears to disrupt TJs |
| COc1cc(C=NNC(=O)CCc2c[nH]c3ccccc23)cc(OC)c1O [Compound 3f, N′-(4-Hydroxy-3,5-dimethoxybenzylidene)-3-(1H-indol-3-yl)propanehydrazide] | statistically identical absorbance values at 515 nm, as compared to the controls | – | 134 to 135 | – | – | less than 15% | – |
